Assay results taken from PubChem BioAssay (NCI).
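Briefly, cells in 96-well plates were exposed to five compound concentrations for 48 h, and endpoints were estimated by linear interpolation. At the GI50, growth is halved. TGI: total growth inhibition.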

Experiments:
Experiment in all cases: DTP human tumour cell line panel, 48 h
[1] = tested on: 786-0 renal
[2] = tested on: A498 renal
[3] = tested on: A549 NSCLC
[4] = tested on: ACHN renal
[5] = tested on: BT-549 breast
[6] = tested on: CAKI-1 renal
[7] = tested on: CCRF-CEM leukemia
[8] = tested on: COLO 205 colon
[9] = tested on: DU-145 prostate
[10] = tested on: EKVX NSCLC
[11] = tested on: HCC-2998 colon
[12] = tested on: HCT-116 colon
[13] = tested on: HCT-15 colon
[14] = tested on: HL-60(TB) leukemia
[15] = tested on: HOP-62 NSCLC
[16] = tested on: HOP-92 NSCLC
[17] = tested on: HS 578T breast
[18] = tested on: HT29 colon
[19] = tested on: IGROV1 ovarian
[20] = tested on: K-562 leukemia
[21] = tested on: KM12 colon
[22] = tested on: LOX IMVI melanoma
[23] = tested on: M14 melanoma
[24] = tested on: MALME-3M melanoma
[25] = tested on: MCF7 breast
[26] = tested on: MDA-MB-231 breast
[27] = tested on: MDA-MB-435
[28] = tested on: MOLT-4 leukemia
[29] = tested on: NCI-H226 lung
[30] = tested on: NCI-H23 lung
[31] = tested on: NCI-H460 lung
[32] = tested on: NCI-H522 lung
[33] = tested on: NCI/ADR-RES ovarian
[34] = tested on: OVCAR-3 ovarian
[35] = tested on: OVCAR-4 ovarian
[36] = tested on: OVCAR-5 ovarian
[37] = tested on: OVCAR-8 ovarian
[38] = tested on: PC-3 prostate
[39] = tested on: RPMI-8226 leukemia
[40] = tested on: RXF 393 renal
[41] = tested on: SF-268 CNS
[42] = tested on: SF-295 CNS
[43] = tested on: SF-539 CNS
[44] = tested on: SK-MEL-2 melanoma
[45] = tested on: SK-MEL-28 melanoma
[46] = tested on: SK-MEL-5 melanoma
[47] = tested on: SK-OV-3 ovarian
[48] = tested on: SN12C renal
[49] = tested on: SNB-19 CNS
[50] = tested on: SNB-75 CNS
[51] = tested on: SR leukemia
[52] = tested on: SW-620 colon
[53] = tested on: T-47D breast
[54] = tested on: TK-10 renal
[55] = tested on: U251 CNS
[56] = tested on: UACC-257 melanoma
[57] = tested on: UACC-62 melanoma
[58] = tested on: UO-31 renal

In the case of `COc1cc(/C=C2\COc3ccc(O)c(O)c3C2=O)cc(OC)c1`, the GI50 [1] is reported as 1.54 µM, the TGI [1] is reported as 3.78 µM and the GI50 [2] is reported as 5.12 µM. For the same molecule, the TGI [2] was 19.1 µM, the GI50 [3] was 2.16 µM and the TGI [3] was 12.1 µM. It also gave a GI50 [4] of 1.54 µM, a TGI [4] of 3.74 µM and a GI50 [5] of 1.56 µM. It also gave a TGI [5] of 4.97 µM, a GI50 [6] of 1.27 µM and a TGI [6] of 3.04 µM. The GI50 [7] was 0.505 µM, the TGI [7] was > 100 µM and the GI50 [8] was 1.75 µM. It also gave a TGI [8] of 5.68 µM, a GI50 [9] of 1.71 µM and a TGI [9] of 4.26 µM. For the same molecule, the GI50 [10] was 2.12 µM, the TGI [10] was 5.53 µM and the GI50 [11] was 1.85 µM. It also gave a TGI [11] of 3.5 µM, a GI50 [12] of 1.56 µM and a TGI [12] of 3.61 µM. It also gave a GI50 [13] of 0.483 µM, a TGI [13] of 10.8 µM and a GI50 [14] of 0.842 µM. The TGI [14] was 11.2 µM, the GI50 [15] was 3.66 µM and the TGI [15] was 11.6 µM. It also gave a GI50 [16] of 1.96 µM, a TGI [16] of 6.08 µM and a GI50 [17] of 2.66 µM. For the same molecule, the TGI [17] was 17.1 µM, the GI50 [18] was 2.78 µM and the TGI [18] was 8.39 µM. The GI50 [19] was 1.36 µM, the TGI [19] was 5.22 µM and the GI50 [20] was 0.471 µM. The TGI [20] was > 100 µM, the GI50 [21] was 1.54 µM and the TGI [21] was 3.58 µM. It also gave a GI50 [22] of 1.28 µM, a TGI [22] of 2.67 µM and a GI50 [23] of 1.56 µM. The TGI [23] was 4.55 µM, the GI50 [24] was 1.82 µM and the TGI [24] was 6.08 µM. It also gave a GI50 [25] of 1.71 µM, a TGI [25] of 14.6 µM and a GI50 [26] of 2.47 µM. The TGI [26] was 10.6 µM, the GI50 [27] was 1.52 µM and the TGI [27] was 3.98 µM. It also gave a GI50 [28] of 1.54 µM, a TGI [28] of 53.1 µM and a GI50 [29] of 4.94 µM. The TGI [29] was 28.2 µM, the GI50 [30] was 2.36 µM and the TGI [30] was 7.02 µM. For the same molecule, the GI50 [31] was 1.81 µM, the TGI [31] was 4.7 µM and the GI50 [32] was 0.171 µM. It also gave a TGI [32] of 0.403 µM, a GI50 [33] of 2.24 µM and a TGI [33] of 46.5 µM. For the same molecule, the GI50 [34] was 0.596 µM, the TGI [34] was 1.92 µM and the GI50 [35] was 2.2 µM. For the same molecule, the TGI [35] was 14.2 µM, the GI50 [36] was 3.03 µM and the TGI [36] was 11.5 µM. The GI50 [37] was 0.944 µM, the TGI [37] was 18.3 µM and the GI50 [38] was 1.61 µM. The TGI [38] was 7.85 µM, the GI50 [39] was 0.558 µM and the TGI [39] was 4.17 µM. For the same molecule, the GI50 [40] was 1.47 µM, the TGI [40] was 3.01 µM and the GI50 [41] was 1.68 µM. For the same molecule, the TGI [41] was 5.34 µM, the GI50 [42] was 3.01 µM and the TGI [42] was 9.09 µM. It also gave a GI50 [43] of 1.84 µM, a TGI [43] of 3.95 µM and a GI50 [44] of 1.93 µM. The TGI [44] was 5.23 µM, the GI50 [45] was 2.97 µM and the TGI [45] was 10.4 µM. It also gave a GI50 [46] of 1.72 µM, a TGI [46] of 3.13 µM and a GI50 [47] of 4.57 µM. For the same molecule, the TGI [47] was 17.3 µM, the GI50 [48] was 1.63 µM and the TGI [48] was 8.24 µM. It also gave a GI50 [49] of 2.17 µM, a TGI [49] of 7.47 µM and a GI50 [50] of 2.42 µM. The TGI [50] was 10.9 µM, the GI50 [51] was 0.852 µM and the TGI [51] was 12.5 µM. For the same molecule, the GI50 [52] was 1.22 µM, the TGI [52] was 4 µM and the GI50 [53] was 1.45 µM. It also gave a TGI [53] of 8 µM, a GI50 [54] of 2.26 µM and a TGI [54] of 6.89 µM. It also gave a GI50 [55] of 0.861 µM, a TGI [55] of 4.09 µM and a GI50 [56] of 1.79 µM. The TGI [56] was 4.97 µM, the GI50 [57] was 1.42 µM and the TGI [57] was 3.57 µM. It also gave a GI50 [58] of 1.02 µM and a TGI [58] of 2.29 µM.
